Measured values as given in ChEMBL document CHEMBL4619786, “Discovery of Novel Resorcinol Dibenzyl Ethers Targeting the Programmed Cell Death-1/Programmed Cell Death-Ligand 1 Interaction as Potential Anticancer Agents” (J Med Chem, 2020).

Columns and labels:
[1] = AUC (0 to t) in Sprague-Dawley rat at 1 mg/kg, iv by LC-MS/MS analysis; type: ADME, organism-based; details: in vivo
[2] = Volume of distribution at steady state in Sprague-Dawley rat at 1 mg/kg, iv by LC-MS/MS analysis; type: ADME, organism-based; details: in vivo, read-out: Vdss
[3] = Cmax in Sprague-Dawley rat at 10 mg/kg, po by LC-MS/MS analysis; type: ADME, organism-based; parameters: dose 10 mg/kg, route oral; details: in vivo
[4] = Toxicity in Sprague-Dawley rat at 10 mg/kg, po; type: organism-based; details: in vivo
A549 = assay: Cytotoxicity against human A549 cells assessed as reduction in cell viability measured after 48 hrs by MTT assay; type: functional, cell-based; details: A549, 48 h
B16-F10 [5] = assay: Cytotoxicity against mouse B16/F10 cells assessed as reduction in cell viability measured after 48 hrs by MTT assay; type: functional, cell-based; details: B16-F10, 48 h
B16-F10 [6] = assay: Antitumor activity against mouse B16/F10 cells implanted in BALB/c mouse assessed as tumor growth inhibition at 50 mg/kg, ig administered once daily via gavage for 15 days relative to control; type: functional; details: B16-F10, po, 360 h, read-out: TGI
B16-F10 [7] = assay: Antitumor activity against mouse B16/F10 cells implanted in BALB/c mouse assessed as tumor growth inhibition at 100 mg/kg, ig administered once daily via gavage for 15 days relative to control; type: functional; details: B16-F10, po, 360 h, read-out: TGI
[8] = Toxicity in mouse B16/F10 cells implanted […] mouse assessed as effect on physical activity at 25 to 100 mg/kg, ig administered once daily via gavage for 15 days measured during compound dosing; type: organism-based; details: in vivo, po, 360 h
[9] = Toxicity in mouse B16/F10 cells implanted […] mouse assessed as change in spleen weight at 25 to 100 mg/kg, ig administered once daily via gavage for 15 days measured 24 hrs post-last dose; type: organism-based; details: in vivo, po
[10] = Toxicity in […] cells xenografted BALB/c mouse assessed as decrease in body weight at 25 mg/kg, ip administered once daily for 14 days measured daily during compound dosing; type: organism-based; details: in vivo, 336 h
Mus musculus [11] = assay: Immunostimulatory activity in mouse B16/F10 cells implanted […] mouse assessed as increase in activation of tumor-microenvironment mediated helper T cells in tumor by measuring CD3-positive/CD4-positive cell population at 100 mg/kg, ig administered once daily via gavage for 15 days measured 24 hrs post-last dose by immunostaining based flow cytometry (reference value: 6.15%); type: functional
Mus musculus [12] = assay: Immunostimulatory activity in mouse B16/F10 cells implanted BALB/c mouse assessed as increase in activation of tumor-microenvironment mediated activated cytotoxic T cells in tumor by measuring CD8-positive cell population at 100 mg/kg, ig administered once daily via gavage for 15 days measured 24 hrs post-last dose by immunostaining based flow cytometry (reference value: 2.2%); type: functional
Mus musculus [13] = assay: Immunostimulatory activity in mouse B16/F10 cells implanted BALB/c mouse assessed as increase in activation of tumor-microenvironment mediated helper T cells in tumor by measuring CD3-positive/CD4-positive cell population at 50 mg/kg, ig administered once daily via gavage for 15 days measured 24 hrs post-last dose by immunostaining based flow cytometry (reference value: 6.15%); type: functional
Mus musculus [14] = assay: Immunostimulatory activity in mouse B16/F10 cells implanted BALB/c mouse assessed as increase in activation of tumor-microenvironment mediated helper T cells in tumor by measuring CD3-positive cell population at 50 mg/kg, ig administered once daily via gavage for 15 days measured 24 hrs post-last dose by immunostaining based flow cytometry (reference value: 18.9%); type: functional
Mus musculus [15] = assay: Immunostimulatory activity in mouse B16/F10 cells implanted BALB/c mouse assessed as increase in activation of tumor-microenvironment mediated activated cytotoxic T cells in tumor by measuring CD3-positive/CD8-positive cell population at 50 mg/kg, ig administered once daily via gavage for 15 days measured 24 hrs post-last dose by immunostaining based flow cytometry (reference value: 4.18%); type: functional
Mus musculus [16] = assay: Immunostimulatory activity in mouse B16/F10 cells implanted […] mouse assessed as increase in activation of tumor-microenvironment mediated helper T cells in tumor by measuring CD4-positive cell population at 25 mg/kg, ig administered once daily via gavage for 15 days measured 24 hrs post-last dose by immunostaining based flow cytometry (reference value: 4.95%); type: functional
Mus musculus [17] = assay: Immunostimulatory activity in mouse B16/F10 cells implanted BALB/c mouse assessed as increase in activation of tumor-microenvironment mediated activated cytotoxic T cells in tumor by measuring CD8-positive cell population at 25 mg/kg, ig administered once daily via gavage for 15 days measured 24 hrs post-last dose by immunostaining based flow cytometry (reference value: 2.2%); type: functional
Mus musculus [18] = assay: Immunostimulatory activity in mouse B16/F10 cells implanted BALB/c mouse assessed as increase in activation of tumor-microenvironment mediated activated cytotoxic T cells in tumor by measuring CD3-positive/CD8-positive cell population at 25 mg/kg, ig administered once daily via gavage for 15 days measured 24 hrs post-last dose by immunostaining based flow cytometry (reference value: 4.18%); type: functional
Mus musculus [19] = assay: Effect on spleen helper T cell population in mouse B16/F10 cells implanted […] mouse assessed as CD4-positive cell population at 100 mg/kg, ig administered once daily via gavage for 15 days measured 24 hrs post-last dose by immunostaining based flow cytometry (reference value: 1.47 %); type: ADME, organism-based; details: in vivo, po
Mus musculus [20] = assay: Effect on spleen helper T cell population in mouse B16/F10 cells implanted […] mouse assessed as CD3-positive/CD4-positive cell population at 100 mg/kg, ig administered once daily via gavage for 15 days measured 24 hrs post-last dose by immunostaining based flow cytometry (reference value: 27.7 %); type: ADME, organism-based; details: in vivo, po
Mus musculus [21] = assay: Effect on activated cytotoxic T cell population in mouse B16/F10 cells implanted […] mouse assessed as CD3-positive/CD8-positive cell population in spleen at 100 mg/kg, ig administered once daily via gavage for 15 days measured 24 hrs post-last dose by immunostaining based flow cytometry (reference value: 14.2 %); type: organism-based; details: in vivo, po
Mus musculus [22] = assay: Effect on spleen helper T cell population in mouse B16/F10 cells implanted […] mouse assessed as CD3-positive cell population at 50 mg/kg, ig administered once daily via gavage for 15 days measured 24 hrs post-last dose by immunostaining based flow cytometry (reference value: 14.7%); type: organism-based; details: in vivo, po
Mus musculus [23] = assay: Effect on activated cytotoxic T cell population in mouse B16/F10 cells implanted […] mouse assessed as spleen cell population at 50 mg/kg, ig administered once daily via gavage for 15 days measured 24 hrs post-last dose by immunostaining based flow cytometry (reference value: 57.9 %); type: organism-based; details: in vivo, po
Mus musculus [24] = assay: Effect on spleen helper T cell population in mouse B16/F10 cells implanted […] mouse assessed as CD3-positive/CD4-positive cell population at 25 mg/kg, ig administered once daily via gavage for 15 days measured 24 hrs post-last dose by immunostaining based flow cytometry (reference value: 27.7%); type: ADME, organism-based; details: in vivo, po
Mus musculus [25] = assay: Effect on activated cytotoxic T cell population in mouse B16/F10 cells implanted […] mouse assessed as CD3-positive cell population in spleen at 25 mg/kg, ig administered once daily via gavage for 15 days measured 24 hrs post-last dose by immunostaining based flow cytometry (reference value: 27.5 %); type: organism-based; details: in vivo, po
[26] = AUC (0 to infinity) in Sprague-Dawley rat at 10 mg/kg, po by LC-MS/MS analysis; type: ADME, organism-based; parameters: dose 10 mg/kg, time infinity, route oral; details: in vivo

`Cc1c(COc2cc(OCc3cccc(C#N)c3)c(CNC(C)(C)C(=O)O)cc2Cl)cccc1-c1ccccc1` gave an AUC(0-t) [1] of 967 ng·h/mL, a Vd [2] of 2.1 L/kg and a Cmax [3] of 69.5 ng/mL. The Activity [4] was “Non-Toxic”, the IC50 (A549) was over 10 µM and the IC50 (B16-F10 [5]) was over 10 µM. The inhibition in vivo at 50 mg/kg (B16-F10 [6]) was 75%, the inhibition in vivo at 100 mg/kg (B16-F10 [7]) was 80.9% and the Activity [8] was “Non-Toxic”. For the same compound, the Activity [9] was “Non-Toxic”, the Activity [10] was “Non-Toxic” and the Activity (Mus musculus [11]) was 13.8%. The Activity (Mus musculus [12]) was 13.5%, the Activity (Mus musculus [13]) was 11.7% and the Activity (Mus musculus [14]) was 17.7%. It also gave an Activity (Mus musculus [15]) of 14.8%, an Activity (Mus musculus [16]) of 4.36% and an Activity (Mus musculus [17]) of 10.2%. For the same compound, the Activity (Mus musculus [18]) was 12.4%, the Activity (Mus musculus [19]) was 1.78% and the Activity (Mus musculus [20]) was 25%. The Activity (Mus musculus [21]) was 11.6%, the Activity (Mus musculus [22]) was 16.7% and the Activity (Mus musculus [23]) was 55.4%. It also gave an Activity (Mus musculus [24]) of 24.4%, an Activity (Mus musculus [25]) of 24.3% and an AUC(0-inf) [26] of 520 ng·h/mL.
